Data from patent publication US20240207242A1, “PHARMACEUTICAL COMPOSITION COMPRISING SPHINGOSINE-1-PHOSPHATE RECEPTOR AGONIST WITH CONTROLLED PARTICLE SIZE” (LG CHEM, LTD., priority 2021, published 2024).
Counter-ions that a name gives are not always drawn.

Test: Pharmacokinetic property (plasma concentration), crossover, tablets (FIG. 3)
Assay type: in vivo
Conditions: male beagle dogs, tablets with Samples 5 to 7
Protocol: A crossover design of taking all three tablets (active ingredients having a particle size of Samples 5 to 7) was applied to this experimentation, and the three tablets were administered to male beagle dogs once each with a 14-day wash-out period. Each dose was taken with 50 mL of water while maintaining the fasted state for at least 14 hours. The results are represented in FIG. 3.

particle size d(0.9) based on Cmax to show bioequivalence in terms of pharmacokinetics: ≤ 60 μm
SMILES: CC(C)n1nc(Cl)c2cc(COc3ccc4c(c3)CCC(CN3CCC(C(=O)O)CC3)=C4Cl)ccc21 [API, 1-[1-chloro-6-(3-chloro-1-isopropyl-1H-indazol-5-ylmethoxy)-3,4-dihydro-naphthalen-2-ylmethyl]-piperidine-4-carboxylic acid hydrochloride]
